Experimental data as given in ChEMBL document CHEMBL1201862, “PubChem BioAssay data set” (2004).
Activity calls are given as the source filed them.

Columns and labels:
Caspase-3 = target: T1, Caspase-3 (Homo sapiens, UniProt P42574); format: functional;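 also: Dose-response selectivity test against caspase-3 for candidate inhibitors of sentrin-specific proteases (SENPs)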
T1 sequence (P42574 whole entry): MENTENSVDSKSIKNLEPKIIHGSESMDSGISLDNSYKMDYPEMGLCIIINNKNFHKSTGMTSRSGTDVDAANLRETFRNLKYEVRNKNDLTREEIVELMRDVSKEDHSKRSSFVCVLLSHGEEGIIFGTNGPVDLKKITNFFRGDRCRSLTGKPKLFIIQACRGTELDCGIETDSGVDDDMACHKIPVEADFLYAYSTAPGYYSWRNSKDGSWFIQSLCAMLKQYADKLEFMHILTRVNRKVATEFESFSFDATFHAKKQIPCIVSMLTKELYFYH

[1] = target: T2, Sentrin-specific protease 8 (Homo sapiens, UniProt Q96LD8); format: functional;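 also: luminescence read-out of SENP8 inhibition, dose-response confirmation following an ultra-high-throughput screen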
T2 sequence (Q96LD8 whole entry): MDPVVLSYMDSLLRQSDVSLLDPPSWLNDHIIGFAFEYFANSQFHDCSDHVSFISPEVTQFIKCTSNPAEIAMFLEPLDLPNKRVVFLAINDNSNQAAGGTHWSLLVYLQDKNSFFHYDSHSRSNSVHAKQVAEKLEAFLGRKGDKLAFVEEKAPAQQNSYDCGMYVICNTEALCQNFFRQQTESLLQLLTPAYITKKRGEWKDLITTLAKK

[2] = target: T3, Sentrin-specific protease 6 (Homo sapiens, UniProt Q9GZR1); format: functional;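 also: Luminescence-based dose-response confirmatory assay of SENP6 inhibition, following up an ultra-high-throughput screen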
T3 sequence (Q9GZR1 whole entry): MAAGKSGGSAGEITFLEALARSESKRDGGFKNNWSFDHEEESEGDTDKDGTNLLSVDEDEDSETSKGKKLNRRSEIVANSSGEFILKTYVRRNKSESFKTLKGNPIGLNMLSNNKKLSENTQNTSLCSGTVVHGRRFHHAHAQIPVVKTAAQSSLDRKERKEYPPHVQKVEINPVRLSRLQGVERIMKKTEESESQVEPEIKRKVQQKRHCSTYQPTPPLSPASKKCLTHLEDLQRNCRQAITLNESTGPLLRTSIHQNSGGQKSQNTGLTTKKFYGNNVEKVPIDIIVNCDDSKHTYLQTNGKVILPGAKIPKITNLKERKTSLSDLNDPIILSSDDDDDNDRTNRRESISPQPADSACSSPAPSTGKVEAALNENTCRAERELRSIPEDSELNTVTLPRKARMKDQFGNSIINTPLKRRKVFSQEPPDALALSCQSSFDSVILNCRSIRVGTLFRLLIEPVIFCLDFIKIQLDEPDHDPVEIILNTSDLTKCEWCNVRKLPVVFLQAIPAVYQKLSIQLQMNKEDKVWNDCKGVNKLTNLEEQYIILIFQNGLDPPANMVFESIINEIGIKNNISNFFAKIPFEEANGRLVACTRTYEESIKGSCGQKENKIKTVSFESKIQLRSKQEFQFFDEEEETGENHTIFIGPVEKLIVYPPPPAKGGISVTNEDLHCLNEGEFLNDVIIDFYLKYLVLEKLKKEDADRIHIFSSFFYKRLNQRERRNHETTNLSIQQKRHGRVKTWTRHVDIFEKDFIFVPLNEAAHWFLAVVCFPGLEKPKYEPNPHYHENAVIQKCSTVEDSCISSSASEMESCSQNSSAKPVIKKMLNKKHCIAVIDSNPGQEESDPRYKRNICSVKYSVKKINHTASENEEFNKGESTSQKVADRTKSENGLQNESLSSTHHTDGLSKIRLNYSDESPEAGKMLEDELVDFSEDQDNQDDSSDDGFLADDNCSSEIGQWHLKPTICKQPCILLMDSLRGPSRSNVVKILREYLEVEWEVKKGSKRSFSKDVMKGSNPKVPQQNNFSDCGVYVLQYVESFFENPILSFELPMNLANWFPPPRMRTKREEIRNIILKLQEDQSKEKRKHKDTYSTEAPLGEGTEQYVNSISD

[3] = target: T4, Sentrin-specific protease 7 (Homo sapiens, UniProt Q9BQF6); format: functional;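 also: Luminescence-based dose-response confirmation of ultra-high-throughput screening hits, measuring inhibition of SENP7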
T4 sequence (Q9BQF6 whole entry): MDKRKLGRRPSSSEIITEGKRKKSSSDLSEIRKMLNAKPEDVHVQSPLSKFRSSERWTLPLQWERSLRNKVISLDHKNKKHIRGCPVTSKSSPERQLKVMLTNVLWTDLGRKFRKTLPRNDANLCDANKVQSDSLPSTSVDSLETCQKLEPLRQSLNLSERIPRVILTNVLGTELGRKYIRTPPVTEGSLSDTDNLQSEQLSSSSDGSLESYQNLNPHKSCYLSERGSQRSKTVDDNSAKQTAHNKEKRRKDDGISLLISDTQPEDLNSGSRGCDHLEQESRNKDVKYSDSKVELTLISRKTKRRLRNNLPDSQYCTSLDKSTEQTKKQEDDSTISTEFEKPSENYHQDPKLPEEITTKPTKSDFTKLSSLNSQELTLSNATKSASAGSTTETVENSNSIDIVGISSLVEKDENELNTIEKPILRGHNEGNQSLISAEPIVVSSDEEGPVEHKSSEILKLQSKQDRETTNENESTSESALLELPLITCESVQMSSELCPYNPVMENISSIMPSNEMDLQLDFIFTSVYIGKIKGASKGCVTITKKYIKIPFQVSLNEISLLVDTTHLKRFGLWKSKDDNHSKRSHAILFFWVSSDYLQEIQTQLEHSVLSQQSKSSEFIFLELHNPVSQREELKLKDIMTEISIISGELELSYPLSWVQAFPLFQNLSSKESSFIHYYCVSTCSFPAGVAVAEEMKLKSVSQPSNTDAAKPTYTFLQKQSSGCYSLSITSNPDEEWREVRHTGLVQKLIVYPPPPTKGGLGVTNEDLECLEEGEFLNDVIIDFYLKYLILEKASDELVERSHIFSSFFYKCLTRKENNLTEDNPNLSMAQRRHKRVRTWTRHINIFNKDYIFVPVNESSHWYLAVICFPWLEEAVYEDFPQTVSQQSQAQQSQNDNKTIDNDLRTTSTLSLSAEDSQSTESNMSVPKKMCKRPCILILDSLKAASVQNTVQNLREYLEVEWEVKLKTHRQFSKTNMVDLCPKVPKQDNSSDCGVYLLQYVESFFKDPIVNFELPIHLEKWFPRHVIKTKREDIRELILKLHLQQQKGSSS

Protein skinhead-1 = target: T5, Protein skinhead-1 (Caenorhabditis elegans, UniProt P34707); format: functional
T5 sequence (P34707 whole entry): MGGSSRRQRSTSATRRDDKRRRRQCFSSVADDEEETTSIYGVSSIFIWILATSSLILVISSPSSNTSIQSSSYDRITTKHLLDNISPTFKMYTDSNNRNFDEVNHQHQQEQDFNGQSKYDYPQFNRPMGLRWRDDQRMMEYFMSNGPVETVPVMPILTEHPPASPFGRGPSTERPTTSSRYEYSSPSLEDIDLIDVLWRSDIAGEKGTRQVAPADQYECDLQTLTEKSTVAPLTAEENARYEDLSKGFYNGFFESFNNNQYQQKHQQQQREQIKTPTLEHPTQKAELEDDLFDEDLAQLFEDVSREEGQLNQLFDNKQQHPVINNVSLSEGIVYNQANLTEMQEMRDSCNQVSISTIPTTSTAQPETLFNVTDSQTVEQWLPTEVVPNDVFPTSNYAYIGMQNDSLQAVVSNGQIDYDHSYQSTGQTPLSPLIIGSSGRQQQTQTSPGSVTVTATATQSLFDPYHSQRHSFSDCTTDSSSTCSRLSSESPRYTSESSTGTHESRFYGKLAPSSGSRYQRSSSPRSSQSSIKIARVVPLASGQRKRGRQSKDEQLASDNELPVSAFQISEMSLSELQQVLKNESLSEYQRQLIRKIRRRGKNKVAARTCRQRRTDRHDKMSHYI

cells = format: functional
[4] = target: T6, Ubiquitin-conjugating enzyme E2 N (Homo sapiens, UniProt P61088); format: functional;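 also: Dose-response confirmation in a TR-FRET assay detecting UBC13-driven polyubiquitin chain formation, inhibition measured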
T6 sequence (P61088 whole entry): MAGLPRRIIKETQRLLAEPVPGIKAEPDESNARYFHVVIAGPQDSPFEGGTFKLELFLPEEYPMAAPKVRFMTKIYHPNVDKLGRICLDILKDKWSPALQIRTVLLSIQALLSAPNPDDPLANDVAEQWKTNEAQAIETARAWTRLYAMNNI

[5] = system: Streptococcus sp. 'group A'; experiment: Streptococcus pyogenes SK(-)GAS viability under kanamycin – luminescence, BacTiterGlo, confirmation, counter-screen for streptokinase expression inhibitor project, dose response (AID 1900); format: functional, organism-based
Streptococcus = experiment: GAS UMAA2166 growth inhibition – luminescence, BacTiterGlo, counter-screen for streptokinase expression inhibitor project, dose response (AID 1915); format: functional, organism-based;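 also: potency for reduction of bacterial viability or growth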
Streptokinase A = target: T7, Streptokinase A (Streptococcus pyogenes serotype M1, UniProt P10520); experiment: viability-normalized secreted streptokinase activity reduction – plasminogen activation absorbance, OD405, dose response (AID 1914); format: functional, Streptococcus pyogenes M1 GAS;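 also: secreted streptokinase activity via plasminogen activation per viability signal from cell pellet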
T7 sequence (P10520 whole entry): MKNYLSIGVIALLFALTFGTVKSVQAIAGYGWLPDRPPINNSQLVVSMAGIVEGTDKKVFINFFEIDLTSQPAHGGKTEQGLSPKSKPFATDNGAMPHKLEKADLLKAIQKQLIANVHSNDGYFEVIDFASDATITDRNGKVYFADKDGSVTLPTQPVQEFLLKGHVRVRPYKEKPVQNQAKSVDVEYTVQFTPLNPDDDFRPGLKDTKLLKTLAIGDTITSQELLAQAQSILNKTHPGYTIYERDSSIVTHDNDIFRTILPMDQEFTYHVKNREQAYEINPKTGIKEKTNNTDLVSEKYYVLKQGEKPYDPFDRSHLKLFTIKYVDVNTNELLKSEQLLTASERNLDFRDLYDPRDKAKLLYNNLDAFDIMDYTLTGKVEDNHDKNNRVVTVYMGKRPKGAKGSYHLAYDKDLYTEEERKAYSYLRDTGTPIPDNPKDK

[6] = fluconazole-exposed Candida albicans growth modulators – fluorescence, retest, confirmation (AID 2467); format: functional, cell-based
Cytochrome P450 2D6 = Cytochrome P450 2D6 (Homo sapiens, UniProt P10635);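 also: CYP2D6 member of a cytochrome P450 panel assay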
[7] = NIH-3T3 fibroblast cytotoxicity, dose response, cytotoxicity control, cell-based, fluorescence, Alamar Blue, secondary assay (AID 2327); format: functional;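 also: NIH-3T3 mouse fibroblasts cultured with fluconazole at 8 µg/mL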
[8] = NIH3T3 cell viability loss – ATP luminescence, mouse fibroblasts, counter-screen, dose response (AID 2010); format: functional, cell-based;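 also: cells exposed to compound for about 90 hours before reading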
[9] = Trypanosoma cruzi growth suppression in host cells – NIH3T3 host cells, beta-gal luminescence, confirmation (AID 2044); format: functional, cell-based;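 also: intracellular parasites grown in NIH/3T3 mouse fibroblasts as host cells; luminescent beta-galactosidase reporter signal from transgenic T. cruzi replicating inside host cells; inhibitors lower the luminescence signal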

Cytochrome P450 2D6, sequence (P10635 whole entry): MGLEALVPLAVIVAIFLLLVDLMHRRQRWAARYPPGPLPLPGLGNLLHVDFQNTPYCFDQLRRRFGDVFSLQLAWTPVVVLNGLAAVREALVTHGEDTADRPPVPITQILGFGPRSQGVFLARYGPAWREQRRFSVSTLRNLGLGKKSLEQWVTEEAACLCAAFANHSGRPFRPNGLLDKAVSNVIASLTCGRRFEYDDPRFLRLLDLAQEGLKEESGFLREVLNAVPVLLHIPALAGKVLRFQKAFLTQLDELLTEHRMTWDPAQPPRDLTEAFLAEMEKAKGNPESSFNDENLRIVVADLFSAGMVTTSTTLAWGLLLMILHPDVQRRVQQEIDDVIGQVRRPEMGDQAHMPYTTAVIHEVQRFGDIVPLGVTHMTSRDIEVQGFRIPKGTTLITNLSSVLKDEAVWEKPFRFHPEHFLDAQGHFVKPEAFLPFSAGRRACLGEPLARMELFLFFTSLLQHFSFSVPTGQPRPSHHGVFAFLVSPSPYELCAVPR

O=C(Nc1ccccc1)Nc1ccccc1C(=O)NCc1ccccc1
IC50 (Caspase-3): 39.4 µM (active) | IC50 [1]: > 100 µM (inactive) | IC50 [2]: > 100 µM (inactive) | IC50 [3]: 6.13 µM (active)

Cc1ccc(CN2CCC(n3nccc3NC(=O)c3ccccc3C)CC2)o1
IC50 (Protein skinhead-1): > 100 µM (inactive)

COc1ccc(C(=O)COC(=O)c2ccccc2O)c(OC)c1
IC50 (cells): 36.9 µM (active) | IC50 (Caspase-3): 27.6 µM (active) | IC50 [1]: 53.1 µM (active) | IC50 [2]: 13.8 µM (active) | IC50 [3]: 8.26 µM (active)

Brc1c(-c2ccccc2)nc2n1Cc1ccccc1-2
IC50 (Caspase-3): 15 µM (active) | IC50 [1]: 7.57 µM (active) | IC50 [2]: 6.75 µM (active) | IC50 [3]: 5.23 µM (active)

Cc1nc(N)sc1C(=O)OCC(C)C
IC50 [4]: > 20 µM (inactive)

O=C1/C(=C/c2cccs2)CCC/C1=C\c1cccs1
EC50 [5]: > 150 µM (not active) | EC50 (Streptococcus): > 150 µM (not active) | EC50 (Streptokinase A): 68.5 µM (active) | IC50 (Protein skinhead-1): 95.2 µM (inactive)

Cc1ccc(NC(=O)c2cc(-c3ccco3)on2)cc1C
IC50 (Protein skinhead-1): > 100 µM (inactive)

O=C(OCc1ccccc1Cl)c1cccnc1Cl
IC50 (Caspase-3): 23.5 µM (active) | IC50 [1]: 27.3 µM (active) | IC50 [2]: 36.6 µM (active) | IC50 [3]: 11.8 µM (active)

C=CCn1c(SCc2ccc(C(=O)Nc3ccccc3)cc2)nnc1-c1ccccc1
EC50 [6]: > 38 µM (not active) | AC50 (Cytochrome P450 2D6): 22.4 µM (inconclusive) | EC50 [7]: > 160 µM (inactive)

Cc1ccc(C(C(=O)NCC2CCCO2)N(C(=O)c2snc(C(N)=O)c2N)c2ccc(C(C)C)cc2)o1 (stereo unspecified)
IC50 [4]: > 20 µM (inactive)

CCOC(=O)/C(C#N)=C/c1ccc(N2CCCCC2)cc1
IC50 (Caspase-3): 23.4 µM (active) | IC50 [1]: 31.6 µM (active) | IC50 [2]: 41.4 µM (active) | IC50 [3]: 7.1 µM (active)

COc1ccc(-n2nc(C(=O)NCc3cc(OC)ccc3OC)c3c4ccccc4n(C)c3c2=O)cc1
IC50 [4]: > 20 µM (inactive)

N#Cc1cnn(-c2nc(O)c3c4c(sc3n2)CCCC4)c1N
EC50 [6]: 0.131 µM (active) | EC50 [7]: 16.9 µM (active)

COC(=O)C1CCN(C(=O)CN(C)Cc2ccc(C(C)(C)C)cc2)CC1
EC50 [8]: > 60 µM (not active) | EC50 [9]: 513 nM (active) | EC50 [6]: 1.43 µM (inconclusive) | EC50 [7]: > 150 µM (inactive)

COc1cccc(NC(=O)CN(C)C(=O)c2cccnc2Nc2cccc(C(F)(F)F)c2)c1
IC50 [4]: > 20 µM (inactive)

c1ccc2c(C[C@@H]3CNCCN3CCCCC3CCCCC3)cccc2c1
IC50 [4]: > 20 µM (inactive)

Clc1ccccc1/C=C/c1ccnc2ccccc12
IC50 (Protein skinhead-1): 67.2 µM (inactive)

CCOC(=O)Nc1cccc2c1-c1ccc([N+](=O)[O-])cc1C2=O
IC50 (Protein skinhead-1): > 100 µM (inactive)

Cc1nc2c(C(=O)NCCC(C)C)cnn2c(O)c1Cc1ccccc1F
EC50 [6]: 4.22 µM (active) | EC50 [7]: > 150 µM (inactive)

CC/C(C)=N/Nc1cccc([N+](=O)[O-])c1
EC50 [6]: > 38 µM (not active) | EC50 [7]: 19.8 µM (active)

Clc1cccc(-c2ccc(-c3nc4ccccn4c3NCc3ccccc3)cc2)c1
IC50 (Caspase-3): 12.9 µM (active) | IC50 [1]: 18 µM (active) | IC50 [2]: 9.6 µM (active) | IC50 [3]: 7.22 µM (active)
